Experimental findings from PubChem BioAssay AID588449 (Broad Institute, 2011) are described below.

The source made the active and inactive calls.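 The calls were made as follows: active = inhibitors whose fitted AC50 is no more than ten times their highest valid tested dose; inconclusive = flat fit with 30 to 70% inhibition, or poor fit; inactive = the rest.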

For the first assay, the target named is Dual specificity tyrosine-phosphorylation-regulated kinase 1A (Rattus norvegicus) (UniProt Q63470). As to the kind of experiment: Dyrk1A kinase inhibitors, NFAT signaling, dose response, biochemical, cherry-pick, plate reader, 2124-03 (AID 588449). Conditions: recombinant Dyrk1A, ADP-Glo luminescence, NFATc1 peptide. For orientation: ADP-Glo first removes unused ATP, then detects ADP through luciferase.
For orientation: AC50 means the concentration at which the activity in the assay is half-maximal. Consider `CN(C)c1ccc(-c2nccc(NCc3cccs3)n2)cc1`, for which the AC50 is 5460 nM.
Regarding `c1nc(NCC2CCCOC2)c2cc(-c3ccc4c(c3)OCO4)ccc2n1` (stereo not given), the concentration at half-maximal activity (AC50) was 6.72 nM.
In the case of `c1csc(CNc2ncnc3ccc(-c4ccoc4)cc23)c1`, the concentration at half-maximal activity (AC50) was 326 nM.
Turning to `c1coc(CCNc2ncnc3ccc(-c4ccc5c(c4)OCO5)cc23)c1`, the AC50 is 74.8 nM.
Take `Clc1ccc(CNc2cc(-c3ccc4c(c3)OCO4)ncn2)cc1`: the half-maximal activity concentration (AC50) was 11300 nM.
Consider `FC(F)(F)c1cccc(Nc2nccc(-c3ccc4c(c3)OCO4)n2)c1`, for which the half-maximal activity concentration (AC50) was less than 5.6 nM.
Same read-out and setting: the result for `c1cncc(CNc2ccnc(-c3ccc4[nH]ncc4c3)n2)c1` reads 711 nM; that for `Cc1occc1CNc1ncnc2ccc(-c3ccc4c(c3)OCO4)cc12`, 121 nM; that for `c1cncc(CNc2cc(-c3ccc4c(c3)OCO4)ncn2)c1`, 1970 nM.
`Clc1ccc(Nc2nccc(-c3ccc4c(c3)OCO4)n2)cc1`: the AC50 is 228 nM.
Still for that read-out and setting: the result for `c1cc(-c2ccc3c(c2)OCO3)nc(Nc2ccc3c(c2)OCO3)n1` reads less than 5.6 nM; that for `c1nc(NCC2CCCO2)c2cc(-c3ccc4c(c3)OCO4)ccc2n1` (stereo not given), less than 5.6 nM.
As to `c1cncc(CNc2nccc(-c3ccc4c(c3)OCO4)n2)c1`, the half-maximal activity concentration (AC50) was 48 nM.
The same measure, in the same setting: the result for `Clc1ccc(CNc2ccnc(-c3ccc4[nH]ncc4c3)n2)cc1Cl` reads 19.1 nM; that for `Clc1ccccc1-c1ccc2ncnc(NCc3ccc4c(c3)OCO4)c2c1`, 3160 nM.
The same measure, in the same setting: with `Cc1ccc(CN(C)c2ncnc3ccc(-c4ccc5c(c4)OCO5)cc23)o1` the figure was 10.4 nM; with `Cc1nc(CNc2ncnc3ccc(-c4ccoc4)cc23)cs1`, 907 nM.
The same measure, in the same setting: with `c1cncc(CNc2nccc(-c3ccc4cn[nH]c4c3)n2)c1` the figure was 217 nM; with `Cc1nc(CNc2ncnc3ccc(-c4ccc5c(c4)OCO5)cc23)cs1`, 168 nM; with `Brc1cc(Br)cc(CNc2nccc(-c3ccc4c(c3)OCO4)n2)c1`, 8.38 nM.
Turning to `Clc1ccc(CNc2nccc(-c3ccc4c(c3)OCO4)n2)cc1Cl`, the AC50 is 84.3 nM.
With `Brc1ccc(CNc2nccc(-c3ccc4c(c3)OCO4)n2)cc1Br`, the AC50 is 209 nM.
The same measure, in the same setting: with `CN(Cc1cccs1)c1ncnc2ccc(-c3ccc4c(c3)OCO4)cc12` the figure was 49.2 nM; with `Cc1c(-c2ccnc(NCc3ccc(Cl)cc3)n2)sc(=O)n1C`, 109 nM.
Take `Cc1noc(CN(C)c2ncnc3ccc(-c4ccc5c(c4)OCO5)cc23)n1`: the AC50 was 21.1 nM.
Still for that read-out and setting: the result for `Clc1ccc(CNc2nccc(-c3ccc4cn[nH]c4c3)n2)cc1Cl` reads 21.6 nM; that for `Cc1c(-c2ccnc(NCc3cccnc3)n2)sc(=O)n1C`, 410 nM.
For `c1nc(NCC2CCCC2)c2cc(-c3ccc4c(c3)OCO4)ccc2n1`, the AC50 is 14.6 nM.
Same read-out and setting: with `COc1ccc(-c2nccc(NCc3ccc(C)cc3)n2)cc1` the figure was less than 5.6 nM.
Same read-out and setting: the result for `Clc1ccc(CNc2nccc(-c3ccc4[nH]ncc4c3)n2)cc1Cl` reads 114 nM.
Still for that read-out and setting: with `CCCNc1ncnc2ccc(-c3ccc4c(c3)OCO4)cc12` the figure was 36.5 nM; with `Clc1cc(Cl)cc(CNc2cc(-c3ccc4c(c3)OCO4)ncn2)c1`, 340 nM; with `Fc1c(-c2ccc3ncnc(NCc4cccs4)c3c2)ccc2c1OCO2`, 83.2 nM.
For the compound `Cc1ccsc1CNc1ncnc2ccc(-c3ccc4c(c3)OCO4)cc12`, the AC50 was 7.9 nM.
The same measure, in the same setting: the result for `O=[N+]([O-])c1cc(Nc2nccc(-c3ccc4c(c3)OCO4)n2)cc(C(F)(F)F)c1` reads 2850 nM; that for `CN(Cc1nccs1)c1ncnc2ccc(-c3ccc4c(c3)OCO4)cc12`, less than 5.6 nM.
The same measure, in the same setting: the result for `c1cncc(CNc2nccc(-c3ccc4[nH]ncc4c3)n2)c1` reads 123 nM.
On the same count and under the same terms, with `CCN(Cc1cccs1)c1ncnc2ccc(-c3ccc4c(c3)OCO4)cc12` the figure was 18 nM; with `CCOC(=O)c1ccc(-c2ccc3ncnc(N(C)Cc4sccc4C)c3c2)o1`, 486 nM.
As to `Cc1ccc(CNc2ncnc3ccc(-c4ccoc4C)cc23)o1`, the AC50 was 2560 nM.
On the same count and under the same terms, with `c1csc(CCNc2ncnc3ccc(-c4ccc5c(c4)OCO5)cc23)c1` the figure was less than 5.6 nM; with `Cc1ccc(CNc2ncnc3ccc(-c4ccc5c(c4)OCO5)cc23)o1`, 62.5 nM; with `Cc1csc(CN(C)c2ncnc3ccc(-c4ccc5c(c4)OCO5)cc23)n1`, 1970 nM.
With `CS(=O)(=O)CCNCc1ccc(-c2ccc3ncnc(Nc4ccc(OCc5cccc(F)c5)c(Cl)c4)c3c2)o1`, the AC50 was > 12000 nM (inactive).
On the same count and under the same terms, with `Clc1ccc(CNc2nccc(-c3ccc4c(c3)OCCO4)n2)cc1Cl` the figure was 19.8 nM; with `Clc1ccc(CNc2ncncc2-c2ccc3c(c2)OCO3)cc1`, 9670 nM; with `c1cncc(CNc2ccnc(-c3ccc4cn[nH]c4c3)n2)c1`, 3540 nM.
With `Clc1cc(Cl)cc(CNc2ncncc2-c2ccc3c(c2)OCO3)c1`, the AC50 is 1060 nM.
Same read-out and setting: the result for `Cc1ccsc1CN(C)c1ncnc2ccc(-c3ccoc3)cc12` reads 60.9 nM; that for `Cc1nc(CN(C)c2ncnc3ccc(-c4ccc5c(c4)OCO5)cc23)cs1`, 20.8 nM; that for `Cc1ccsc1CN(C)c1ncnc2ccc(-c3ccc(CO)o3)cc12`, 905 nM.

The assay is the same for the next values; noted with them: recombinant Dyrk1A, ADP-Glo luminescence, NFATc1 peptide; at 12 µM (top of the series).
Turning to `Cn1ccc2cc(-c3ccc4ncnc(NCc5ccc6c(c5)OCO6)c4c3)ccc21`, the “activity change, negative = inhibition” value was “inactive”.
Regarding `c1csc(CNc2ncnc3ccc(-c4ccc5c(c4)OCO5)cc23)n1`, the “activity change, negative = inhibition” value is “inactive”.
The same measure, in the same setting: with `Cc1cccc(CNc2ncnc3ccc(-c4cccc(Cl)c4)cc23)c1` the entry was “inactive”; with `Cn1ccc2cc(-c3ccc4ncnc(NCc5cccc(F)c5)c4c3)ccc21`, “inactive”.
